This note sets out measurements from patent US10081662B2, “Modified relaxin B chain peptides” (The Florey Institute of Neuroscience and Mental Health, priority 2014, dated 2018).

The structures appear in SMILES notation. Peptide text beside a SMILES is read from it.

One series has as its target T1, RXFP1 (Homo sapiens, UniProt Q9HBX9).
T1 construct: expressed in transfected cells; host or cells: HEK-293T
T1 sequence (Q9HBX9 1-757): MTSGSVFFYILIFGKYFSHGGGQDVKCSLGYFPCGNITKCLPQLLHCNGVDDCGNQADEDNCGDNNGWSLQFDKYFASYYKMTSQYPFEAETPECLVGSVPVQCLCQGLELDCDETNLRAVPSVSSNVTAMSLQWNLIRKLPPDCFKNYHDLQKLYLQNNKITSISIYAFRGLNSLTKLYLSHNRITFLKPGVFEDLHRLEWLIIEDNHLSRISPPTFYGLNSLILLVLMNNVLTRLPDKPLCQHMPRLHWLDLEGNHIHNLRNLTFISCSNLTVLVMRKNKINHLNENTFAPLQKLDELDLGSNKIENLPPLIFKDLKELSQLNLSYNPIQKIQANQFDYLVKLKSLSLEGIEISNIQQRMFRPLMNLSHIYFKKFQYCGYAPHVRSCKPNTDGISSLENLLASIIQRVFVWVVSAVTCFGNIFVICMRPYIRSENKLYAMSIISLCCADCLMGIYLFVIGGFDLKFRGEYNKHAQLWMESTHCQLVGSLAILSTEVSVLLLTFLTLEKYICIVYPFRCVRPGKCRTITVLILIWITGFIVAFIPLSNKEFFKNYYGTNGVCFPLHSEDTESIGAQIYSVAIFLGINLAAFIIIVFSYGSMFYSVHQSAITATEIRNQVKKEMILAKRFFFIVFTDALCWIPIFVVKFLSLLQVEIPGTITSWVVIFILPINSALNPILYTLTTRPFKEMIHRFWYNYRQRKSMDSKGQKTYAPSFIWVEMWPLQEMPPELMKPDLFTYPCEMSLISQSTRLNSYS
In words: Eu-labelled H2 relaxin competition binding, whole HEK-293T cells stably transfected with RXFP1. Particulars: RXFP1-expressing cells, Eu-labelled H2 relaxin; FIG. 2A. The protocol:
Human embryonic kidney (HEK-293T) cells stably transfected with RXFP1 were cultured in RPMI 1640 medium supplemented with 10% fetal calf serum, 100 μg/ml penicillin, 100 μg/ml streptomycin and 2 mM L-glutamine and plated into 96-well pre-coated with poly-L-lysine for whole cell binding assays. Competition binding experiments were conducted with Eu^3+-labelled H2 relaxin (as per Shabanpoor et al., 2012, Biochem Biophys Res Commun. 420, 253-256) in the absence or presence of increasing concentrations of unlabelled relaxin-2 B chain derivatives. Nonspecific binding was determined with an excess of unlabelled peptides (500 nM H2 relaxin). Fluorescent measurements were recorded at an excitation wavelength of 340 nm and emission of 614 nm on a Victor plate reader (Perkin-Elmer Inc.). […] Statistical differences in pIC50 values were analyzed using one-way analysis of variance coupled to Newman Keul's multiple comparison test for multiple group comparisons in GraphPad Prism 6.

A further series concerns ERK1/2. Put plainly: ERK1/2 phosphorylation (AlphaScreen SureFire) in rat renal myofibroblasts endogenously expressing RXFP1. Type of series: cell-based. Here is the method: The inventors then tested the single chain B7-33 C11.23S relaxin-2 peptide for its ability to signal via different pathways, cAMP (see Example 2) and pERK.1/2 on HEK-293T (cells stably expressing RXFP1) and myofibroblast cells (cells endogenously expressing RXFP1) The cAMP assay was conducted as described in Example 2. Phosphorylation of ERK1/2 was determined using AlphaScreen SureFire® assay which is a proprietary, non-radioactive and non-Western proximity assay that relies on singlet oxygen energy transfer (PerkinElmer Inc.). Rat renal fibroblasts (that endogenously express RXFP1 receptor) were seeded into a 96-well plate at a density of 40,000 cells per well and incubated overnight in complete media to allow cell adhesion. Cells were then serum-starved for 4-6 hours followed by native H2 relaxin (100 nM) or B7-33 C11.23S peptide (100 nM) treatment for periods of up to 20 minutes and ERK1/2 activation was quantified using the phospho-ERK1/2 Surefire AlphaScreen kit.
A general note: Bead proximity is the source of the signal in Alpha formats.

The subject of series [1] is RM1 mouse prostate tumour cells. Put plainly: Prostate tumour growth after injection of RM1 cells into prostates of C57BL/6 mice. Type of series: in vivo. Particulars: day 10 after RM1 cells, s.c. mini-pump from day 2, H2 relaxin 0.15, B7-33 C11.23S 0.075 mg/kg/day, vs untreated. An excerpt: Seven to eight-week old male 129SV mice (which are sensitive to tissue injury and fibrosis) and age-matched female Balb/c mice (which are sensitive to changes in airway hyperresponsiveness) were used for the induction of isoproterenol-induced cardiomyopathy and ovalbumin-induced chronic allergic airways disease, respectively. 16 five week-old male C57BL/6 mice were used in the induction of prostate cancer growth. All animals were obtained from Monash Animal Services (Monash University, Clayton, Victoria, Australia) and housed under standard conditions (maintained on an 12 h light-12 h dark lighting cycle with free access to food and water) in the Department of Pharmacology Animal Room at Monash University.
H2 relaxin can induce prostate and other tumour growth. To measure the effect of B7-33 C11.23S on tumour growth, 16 five week-old male C57BL/6 mice (obtained from Monash Animal Services) were injected with 5000 RM1 (mouse prostate tumor) cells into their prostates to induce tumor growth. One sub-group of mice n=5) was left untreated until day 10 post-RM1 cell administration. […]

As to `CC[C@H](C)[C@H](NC(=O)[C@H](C)NC(=O)[C@@H](NC(=O)[C@H](CCC(N)=O)NC(=O)[C@H](C)NC(=O)[C@H](CCCNC(=N)N)NC(=O)[C@@H](NC(=O)[C@H](CC(C)C)NC(=O)[C@H](CCC(=O)O)NC(=O)[C@H](CCCNC(=N)N)NC(=O)CNC(=O)[C@H](CO)NC(=O)[C@H](CC(C)C)NC(=O)[C@H](CCCCN)NC(=O)[C@@H](NC(=O)[C@@H](N)C(C)C)[C@@H](C)CC)C(C)C)[C@@H](C)CC)C(=O)N[C@@H](CO)C(=O)NCC(=O)N[C@@H](CCSC)C(=O)N[C@@H](CO)C(=O)N[C@H](C(=O)N[C@@H](Cc1c[nH]c2ccccc12)C(=O)N[C@@H](CO)C(=O)N[C@@H](CCCCN)C(=O)N[C@@H](CCCNC(=N)N)C(=O)N[C@@H](CO)C(=O)N[C@@H](CC(C)C)C(N)=O)[C@@H](C)O` [B7-33 C11.23S] (H-VIKLSGRELVRAQIAISGMSTWSKRSL-NH2), the “Binding to RXFP1 (in words)” value on RXFP1 is “binds RXFP1, but with lower affinity than H2 relaxin”. For the same compound, the “pERK potency in rat renal myofibroblast (in words)” value in the series on ERK1/2 (rat renal myofibroblasts natively expressing RXFP1, FIG. 4) is “very high pERK potency”. Further, the “Time of peak ERK1/2 activation after peptide treatment” value in the series with ERK1/2 (rat renal myofibroblasts, 100 nM peptide) is 5 min. Further, the “ERK1/2 activation, level of efficacy” value with ERK1/2 (rat renal myofibroblasts, 100 nM peptide, up to 20 minutes, FIG. 4) is recorded as “slightly higher level of efficacy as H2 relaxin”. In series [1], the Prostate tumour size entry is “did not result in changes in tumour size relative to untreated”.
